According to ChEMBL document CHEMBL5223122, “Discovery and preclinical evaluations of GST-HG131, a novel HBV antigen inhibitor for the treatment of chronic hepatitis B infection” (Bioorg Med Chem Lett, 2022):
The source made the active and inactive calls. The calls are words filed in the database; no cut-off is given here.

Legend:
Hepatitis B virus [1] = assay: Antiviral activity against HBV infected in human HepG2.2.15 assessed as HBV DNA reduction by qPCR method; format: functional, organism-based
Hepatitis B virus [2] = assay: Antiviral activity against HBV infected in human HepG2.2.15 assessed as reduction on HBsAg level by ELISA; format: functional, organism-based
[3] = Clearance in C57BL/6 mouse at 1 mg/kg, iv; format: ADME, organism-based; conditions: in vivo
[4] = Volume of distribution in steady state in C57BL/6 mouse at 1 mg/kg, iv; format: ADME, organism-based; conditions: in vivo, read-out: Vdss
[5] = Half life in C57BL/6 mouse at 1 mg/kg, iv; format: ADME, organism-based; conditions: in vivo
[6] = Cmax in C57BL/6 mouse at 2 mg/kg, po; format: ADME, organism-based; parameters: dose 2 mg/kg, route po; conditions: in vivo
[7] = Oral bioavailability in C57BL/6 mouse at 2 mg/kg; format: ADME, organism-based; conditions: in vivo
[8] = Clearance in Sprague-Dawley rat at 1 mg/kg, iv; format: ADME, organism-based; conditions: in vivo
[9] = Volume of distribution in steady state in Sprague-Dawley rat at 1 mg/kg, iv; format: ADME, organism-based; conditions: in vivo, read-out: Vdss
[10] = Half life in Sprague-Dawley rat at 1 mg/kg, iv; format: ADME, organism-based; conditions: in vivo
[11] = Cmax in Sprague-Dawley rat at 2 mg/kg, po; format: ADME, organism-based; parameters: dose 2 mg/kg, route po; conditions: in vivo
[12] = Oral bioavailability in Sprague-Dawley rat at 2 mg/kg; format: ADME, organism-based; conditions: in vivo
[13] = Clearance in Beagle dog at 1 mg/kg, iv; format: ADME, organism-based, Canis lupus familiaris; conditions: in vivo
[14] = Volume of distribution in steady state in Beagle dog at 1 mg/kg, iv; format: ADME, organism-based, Canis lupus familiaris; conditions: in vivo, read-out: Vdss
[15] = Half life in Beagle dog at 1 mg/kg, iv; format: ADME, organism-based, Canis lupus familiaris; conditions: in vivo
[16] = Cmax in Beagle dog at 3 mg/kg, po; format: ADME, organism-based, Canis lupus familiaris; parameters: dose 3 mg/kg, route po; conditions: in vivo
[17] = AUC (0-last) in Beagle dog at 3 mg/kg, po; format: ADME, organism-based, Canis lupus familiaris; parameters: dose 3 mg/kg, route po; conditions: in vivo
[18] = Oral bioavailability in Beagle dog at 3 mg/kg; format: ADME, organism-based, Canis lupus familiaris; conditions: in vivo
[19] = Apparent permeability across apical to basolateral side in human Caco-2 cells; format: ADME, cell-based
[20] = Apparent permeability across basolateral to apical side in human Caco-2 cells; format: ADME, cell-based
[21] = Efflux ratio of apparent permeability from basolateral to apical side over apical to basolateral side in human Caco-2 cells; format: ADME, cell-based
[22] = Protein binding in human plasma assessed as unbound fraction; format: ADME, cell-free
[23] = Protein binding in rat plasma assessed as unbound fraction; format: ADME, cell-free
[24] = Microsomal stability in mouse liver microsomes assessed as intrinsic clearance measured per mg of protein; format: ADME, Microsome; conditions: read-out: CLH
[25] = Microsomal stability in rat liver microsomes assessed as intrinsic clearance measured per mg of protein; format: ADME, Microsome; conditions: read-out: CLH
[26] = Microsomal stability in dog liver microsomes assessed as intrinsic clearance measured per mg of protein; format: ADME, Canis lupus familiaris, Microsome; conditions: read-out: CLH
[27] = Microsomal stability in cynomolgus monkey liver microsomes assessed as intrinsic clearance measured per mg of protein; format: ADME, Macaca fascicularis, Microsome; conditions: read-out: CLH
[28] = Microsomal stability in human liver microsomes assessed as intrinsic clearance measured per mg of protein; format: ADME, Microsome; conditions: read-out: CLH
CYP1A2 = target: T1, CYP1A2 (Homo sapiens, UniProt P05177); assay: Inhibition of CYP1A2 (unknown origin); format: ADME
T1 sequence (P05177 whole entry): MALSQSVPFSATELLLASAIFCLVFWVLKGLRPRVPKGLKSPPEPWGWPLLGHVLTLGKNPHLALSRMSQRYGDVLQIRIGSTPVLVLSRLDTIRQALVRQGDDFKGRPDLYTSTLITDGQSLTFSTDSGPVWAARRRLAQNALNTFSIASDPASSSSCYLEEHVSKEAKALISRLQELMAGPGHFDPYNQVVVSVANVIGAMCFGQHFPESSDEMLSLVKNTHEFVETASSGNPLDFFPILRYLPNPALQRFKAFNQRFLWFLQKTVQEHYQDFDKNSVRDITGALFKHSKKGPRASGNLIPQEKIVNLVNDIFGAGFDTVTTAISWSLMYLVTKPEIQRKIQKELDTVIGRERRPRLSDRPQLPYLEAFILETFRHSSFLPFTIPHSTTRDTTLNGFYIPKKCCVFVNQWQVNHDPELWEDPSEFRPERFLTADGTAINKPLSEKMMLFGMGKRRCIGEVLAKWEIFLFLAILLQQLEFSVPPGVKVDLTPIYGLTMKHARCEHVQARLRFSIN

CYP2D6 = CYP2D6 (Homo sapiens, UniProt P10635); assay: Inhibition of CYP2D6 (unknown origin); format: ADME
CYP2C19 = CYP2C19 (Homo sapiens, UniProt P33261); assay: Inhibition of CYP2C19 (unknown origin); format: ADME
CYP2C9 = CYP2C9 (Homo sapiens, UniProt P11712); assay: Inhibition of CYP2C9 (unknown origin); format: ADME
CYP3A4 = CYP3A4 (Homo sapiens, UniProt P08684); assay: Inhibition of CYP3A4 (unknown origin); format: ADME
[29] = target: Voltage-gated inwardly rectifying potassium channel KCNH2 (Homo sapiens, UniProt Q12809); assay: Inhibition of human ERG; format: toxicity
Cytochrome P450 3A4 = Cytochrome P450 3A4 (Homo sapiens, UniProt P08684); assay: Induction of CYP3A4 (unknown origin); format: ADME
Hepatitis B virus [30] = assay: Antiviral activity against HBV infected in human primary hepatocytes assessed as reduction on HBsAg level by ELISA; format: functional, organism-based; conditions: Hepatocyte
Hepatitis B virus [31] = assay: Antiviral activity against HBV infected in human primary hepatocytes assessed as reduction on HBeAg level by ELISA; format: functional, organism-based; conditions: Hepatocyte
Hepatitis B virus [32] = assay: Antiviral activity against HBV infected in human primary hepatocytes assessed as HBV DNA reduction at 20 uM by qPCR method; format: functional, Primary hepatocyte; parameters: scale not given: the % may be the effect or the level left
Hepatitis B virus [33] = assay: Antiviral activity against HBV infected in human HepG2.2.15 cells assessed as reduction of 3.5 Kb HBV RNA level at 0.23 to 500 nM by Northern blot anlaysis; format: functional, organism-based; conditions: dose 0.23-500 nM
Hepatitis B virus [34] = assay: Antiviral activity against HBV infected in human HepG2.2.15 cells assessed as reduction of 2.4/2.1 Kb HBV RNA level at 0.23 to 500 nM by Northern blot anlaysis; format: functional, organism-based; conditions: dose 0.23-500 nM
Hepatitis B virus [35] = assay: Antiviral activity against HBV infected in human HepG2.2.15 cells assessed as reduction of 3.5 Kb HBV RNA level at 500 nM incubated for 4 to 48 hrs by Northern blot anlaysis; format: functional, organism-based; conditions: time 4-48 hrs, TDE = time-dependent effect
Hepatitis B virus [36] = assay: Antiviral activity against HBV infected in human HepG2.2.15 cells assessed as reduction of 2.4/2.1 Kb HBV RNA level at 500 nM incubated for 4 to 48 hrs by Northern blot anlaysis; format: functional, organism-based; conditions: time 4-48 hrs, TDE = time-dependent effect
Hepatitis B virus [37] = assay: Antiviral activity against HBV infected in human HepG2.2.15 cells assessed as maximum efficacy causing reduction of 3.5 Kb HBV RNA level incubated for 16 hrs by Northern blot anlaysis; format: functional, organism-based
Hepatitis B virus [38] = assay: In vivo antiviral activity against AAV encapsidated HBV infected in mouse assessed as reduction in HBsAg level at 3 to 10 mg/kg, po QD for 4 weeks by ELISA; format: functional, organism-based; conditions: dose 3-10 mg/kg
Hepatitis B virus [39] = assay: In vivo antiviral activity against AAV encapsidated HBV infected in mouse assessed as reduction in HBeAg level at 3 to 10 mg/kg, po QD for 4 weeks by ELISA; format: functional, organism-based; conditions: dose 3-10 mg/kg
Hepatitis B virus [40] = assay: In vivo antiviral activity against AAV encapsidated HBV infected in mouse assessed as reduction in HBV DNA at 3 to 10 mg/kg, po QD for 4 weeks by qPCR method; format: functional, organism-based; conditions: dose 3-10 mg/kg
Hepatitis B virus [41] = assay: In vivo antiviral activity against AAV encapsidated HBV infected in mouse assessed as reduction in HBsAg level at 10 mg/kg, po QD for 4 weeks in presence of tenofovir disoproxil fumarate by ELISA; format: functional, organism-based
Hepatitis B virus [42] = assay: In vivo antiviral activity against AAV encapsidated HBV infected in mouse assessed as reduction in HBeAg level at 10 mg/kg, po QD for 4 weeks in presence of tenofovir disoproxil fumarate by ELISA; format: functional, organism-based
Hepatitis B virus [43] = assay: In vivo antiviral activity against AAV encapsidated HBV infected in mouse assessed as reduction in HBV DNA at 10 mg/kg, po QD for 4 weeks in presence of tenofovir disoproxil fumarate by qPCR method; format: functional, organism-based
[44] = Toxicity in mouse infected with AAV encapsidated HBV assessed as change in body weight at 3 to 10 mg/kg, po QD for 4 weeks; format: organism-based; conditions: in vivo, 672 h, dose 3-10 mg/kg
[45] = Glutathione reactivity assessed as GSH adduct formation; format: ADME
[46] = Toxicity in rat assessed as organ abnormality at 100 to 300 mg/kg, po QD for 14 days; format: organism-based; conditions: in vivo, 336 h, dose 100-300 mg/kg, time 14 day
[47] = Toxicity in rat assessed as mild white myeloid lymphocytopenia of spleen at 1000 mg/kg, po QD for 14 days; format: organism-based; conditions: in vivo, 336 h, time 14 day
[48] = Toxicity in rat assessed as rectal temperature at 300 to 1000 mg/kg, po measured after 1 hrs; format: organism-based; conditions: in vivo, dose 300-1000 mg/kg

Sequence of CYP2C19 (P33261 whole entry): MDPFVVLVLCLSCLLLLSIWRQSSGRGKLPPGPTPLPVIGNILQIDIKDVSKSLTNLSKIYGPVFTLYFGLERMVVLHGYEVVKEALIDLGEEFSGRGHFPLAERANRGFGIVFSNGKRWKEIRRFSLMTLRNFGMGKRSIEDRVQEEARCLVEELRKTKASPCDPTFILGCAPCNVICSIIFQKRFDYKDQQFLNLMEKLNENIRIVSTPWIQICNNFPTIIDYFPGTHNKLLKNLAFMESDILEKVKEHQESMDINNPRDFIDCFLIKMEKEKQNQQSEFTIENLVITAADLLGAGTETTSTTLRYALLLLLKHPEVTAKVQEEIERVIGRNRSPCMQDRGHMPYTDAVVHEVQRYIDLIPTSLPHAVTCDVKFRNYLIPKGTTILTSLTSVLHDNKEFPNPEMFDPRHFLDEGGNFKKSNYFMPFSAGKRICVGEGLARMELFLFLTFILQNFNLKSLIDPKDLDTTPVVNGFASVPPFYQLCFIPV
Sequence of CYP2C9 (P11712 whole entry): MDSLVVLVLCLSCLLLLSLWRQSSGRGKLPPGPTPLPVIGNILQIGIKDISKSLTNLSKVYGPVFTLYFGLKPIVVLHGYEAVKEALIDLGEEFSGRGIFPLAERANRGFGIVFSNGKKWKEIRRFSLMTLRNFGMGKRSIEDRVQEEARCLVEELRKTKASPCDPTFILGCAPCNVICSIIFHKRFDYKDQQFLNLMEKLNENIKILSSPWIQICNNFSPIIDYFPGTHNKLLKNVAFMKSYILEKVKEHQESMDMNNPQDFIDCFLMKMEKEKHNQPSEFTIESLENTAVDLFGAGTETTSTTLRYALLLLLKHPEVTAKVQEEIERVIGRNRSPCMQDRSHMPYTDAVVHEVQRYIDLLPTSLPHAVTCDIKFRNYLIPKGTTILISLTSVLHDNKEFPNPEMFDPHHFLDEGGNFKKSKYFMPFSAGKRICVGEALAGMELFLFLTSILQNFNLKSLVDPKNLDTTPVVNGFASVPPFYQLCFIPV
Sequence of CYP3A4 (P08684 whole entry): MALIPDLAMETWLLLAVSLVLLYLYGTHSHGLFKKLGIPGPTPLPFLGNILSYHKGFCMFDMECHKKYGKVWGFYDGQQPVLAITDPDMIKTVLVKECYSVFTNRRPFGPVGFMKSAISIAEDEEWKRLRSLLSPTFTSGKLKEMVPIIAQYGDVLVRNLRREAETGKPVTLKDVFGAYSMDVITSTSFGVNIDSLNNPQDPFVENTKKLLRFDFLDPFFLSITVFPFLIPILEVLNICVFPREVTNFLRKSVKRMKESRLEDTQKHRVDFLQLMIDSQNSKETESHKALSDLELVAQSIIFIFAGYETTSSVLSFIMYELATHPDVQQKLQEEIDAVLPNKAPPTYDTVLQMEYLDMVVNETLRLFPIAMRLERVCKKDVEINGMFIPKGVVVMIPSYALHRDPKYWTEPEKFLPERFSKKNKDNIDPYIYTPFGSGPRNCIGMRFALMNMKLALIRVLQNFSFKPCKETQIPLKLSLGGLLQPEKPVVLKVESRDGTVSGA
Sequence of Cytochrome P450 3A4 (P08684 whole entry): as above
Sequence of Voltage-gated inwardly rectifying potassium channel KCNH2 (Q12809 whole entry): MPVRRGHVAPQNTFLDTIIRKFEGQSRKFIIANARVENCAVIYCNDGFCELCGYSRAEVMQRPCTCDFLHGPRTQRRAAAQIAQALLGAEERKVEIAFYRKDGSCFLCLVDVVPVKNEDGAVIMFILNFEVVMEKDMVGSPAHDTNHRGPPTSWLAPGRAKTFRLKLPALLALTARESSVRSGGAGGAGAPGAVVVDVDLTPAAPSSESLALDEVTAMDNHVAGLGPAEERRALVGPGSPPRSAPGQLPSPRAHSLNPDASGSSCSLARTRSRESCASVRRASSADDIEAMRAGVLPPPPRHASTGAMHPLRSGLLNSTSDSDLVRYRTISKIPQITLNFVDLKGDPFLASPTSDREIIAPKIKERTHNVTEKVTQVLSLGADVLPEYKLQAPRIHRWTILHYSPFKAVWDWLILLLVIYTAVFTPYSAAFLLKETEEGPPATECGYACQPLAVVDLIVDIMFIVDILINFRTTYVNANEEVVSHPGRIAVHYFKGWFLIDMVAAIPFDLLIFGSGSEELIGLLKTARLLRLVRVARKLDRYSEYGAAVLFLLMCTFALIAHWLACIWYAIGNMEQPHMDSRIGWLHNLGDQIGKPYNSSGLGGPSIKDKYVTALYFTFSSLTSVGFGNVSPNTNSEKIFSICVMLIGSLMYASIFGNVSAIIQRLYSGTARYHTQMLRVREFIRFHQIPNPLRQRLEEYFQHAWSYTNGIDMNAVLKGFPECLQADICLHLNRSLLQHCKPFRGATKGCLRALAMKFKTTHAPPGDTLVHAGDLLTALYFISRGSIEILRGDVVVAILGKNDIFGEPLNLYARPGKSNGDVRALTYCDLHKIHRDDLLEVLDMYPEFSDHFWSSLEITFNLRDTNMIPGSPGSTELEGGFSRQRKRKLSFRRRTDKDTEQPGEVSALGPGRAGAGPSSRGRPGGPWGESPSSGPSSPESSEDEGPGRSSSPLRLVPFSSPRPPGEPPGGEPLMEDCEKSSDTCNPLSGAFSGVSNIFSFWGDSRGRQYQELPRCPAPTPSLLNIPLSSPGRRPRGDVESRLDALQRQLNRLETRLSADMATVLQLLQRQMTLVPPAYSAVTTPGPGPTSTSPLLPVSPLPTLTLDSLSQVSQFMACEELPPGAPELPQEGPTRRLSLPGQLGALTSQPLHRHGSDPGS
Sequence of CYP2D6 (P10635 whole entry): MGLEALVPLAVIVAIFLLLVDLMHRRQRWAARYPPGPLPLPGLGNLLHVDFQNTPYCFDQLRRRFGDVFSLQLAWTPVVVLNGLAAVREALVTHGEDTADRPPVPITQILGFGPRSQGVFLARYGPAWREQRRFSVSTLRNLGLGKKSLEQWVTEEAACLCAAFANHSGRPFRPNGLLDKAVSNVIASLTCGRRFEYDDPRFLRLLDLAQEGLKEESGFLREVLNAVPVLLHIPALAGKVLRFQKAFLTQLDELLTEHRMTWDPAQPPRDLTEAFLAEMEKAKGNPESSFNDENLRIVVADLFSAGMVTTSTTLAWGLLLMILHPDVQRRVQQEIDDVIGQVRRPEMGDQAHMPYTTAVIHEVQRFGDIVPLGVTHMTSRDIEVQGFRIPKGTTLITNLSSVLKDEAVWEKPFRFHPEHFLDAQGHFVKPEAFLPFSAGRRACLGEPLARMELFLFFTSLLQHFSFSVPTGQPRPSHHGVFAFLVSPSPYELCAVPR

In the case of `COCCCOc1cc2c(cc1OC)-c1cc(=O)c(C(=O)O)cn1[C@H](C(C)(C)C)CO2`, the EC50 (Hepatitis B virus [1]) is reported as 2.6 nM, the EC50 (Hepatitis B virus [2]) is reported as 3.9 nM and the clearance [3] is reported as 75 mL/min/kg. The Vd [4] was 5.8 L/kg, the half-life [5] was 2.5 h and the Cmax [6] was 1060 nM. The bioavailability [7] was 91.6%, the clearance [8] was 28 mL/min/kg and the Vd [9] was 1.72 L/kg. For the same molecule, the half-life [10] was 2 h, the Cmax [11] was 659 nM and the bioavailability [12] was 71.1%. For the same molecule, the clearance [13] was 4.04 mL/min/kg, the Vd [14] was 1.08 L/kg and the half-life [15] was 3.39 h. The Cmax [16] was 4850 nM, the AUC(0-t) [17] was 26.5 µM·h and the bioavailability [18] was 93.2%. For the same molecule, the Papp A→B [19] was 1.4 ×10⁻⁶ cm/s, the Papp B→A [20] was 20.4 ×10⁻⁶ cm/s and the efflux ratio [21] was 14.1. The fraction unbound [22] was 0.44, the fraction unbound [23] was 0.414 and the microsomal CLint [24] was under 7.5 µL/min/mg. The microsomal CLint [25] was under 7.5 µL/min/mg, the microsomal CLint [26] was under 7.5 µL/min/mg and the microsomal CLint [27] was under 7.5 µL/min/mg. For the same molecule, the microsomal CLint [28] was under 7.5 µL/min/mg, the IC50 (CYP1A2) was over 50000 nM and the IC50 (CYP2D6) was over 50000 nM. For the same molecule, the IC50 (CYP2C19) was over 50000 nM, the IC50 (CYP2C9) was over 50000 nM and the IC50 (CYP3A4) was over 50000 nM. For the same molecule, the IC50 [29] was over 30000 nM, the Activity (Cytochrome P450 3A4) was “Not Active” and the EC50 (Hepatitis B virus [30]) was 28.2 nM. For the same molecule, the EC50 (Hepatitis B virus [31]) was 16 nM, the Activity (Hepatitis B virus [32]) was 50% and the Activity (Hepatitis B virus [33]) was “Dose-Dependent Effect”. The Activity (Hepatitis B virus [34]) was “Dose-Dependent Effect”, the Activity (Hepatitis B virus [35]) was “Tde” and the Activity (Hepatitis B virus [36]) was “Tde”. The Activity (Hepatitis B virus [37]) was “Active”, the Activity (Hepatitis B virus [38]) was “Dose-Dependent Effect” and the Activity (Hepatitis B virus [39]) was “Dose-Dependent Effect”. For the same molecule, the Activity (Hepatitis B virus [40]) was “inactive”, the Activity (Hepatitis B virus [41]) was “inactive” and the Activity (Hepatitis B virus [42]) was “inactive”. The Activity (Hepatitis B virus [43]) was “Active”, the Activity [44] was “Non-Toxic” and the Activity [45] was “Not Active”. For the same molecule, the Activity [46] was “Non-Toxic”, the Activity [47] was “Toxic” and the Activity [48] was “Non-Toxic”.
